Experimental data taken from publication PMC7824081, “Inhibition of DOT1L by Half-Selenopsammaplin A Analogs Suppresses Tumor Growth and EMT-Mediated Metastasis in Triple-Negative Breast Cancer” (Pharmaceuticals, 2020).

How the values were obtained:
Assay type in all cases: cell-based, human
MDA-MB-231 TNBC cells = assay: SRB cell proliferation assay, MDA-MB-231
Method: (§1) Human breast epithelial cell line (MCF10A) and human TNBC cell lines (MDA-MB-468, MDA-MB-231, Hs578T, and HCC38 cells) were provided by the American Type Culture Collection (Manassas, VA, USA). MCF10A cells were cultured in Dulbecco’s Modified Eagle’s Medium/Nutrient Mixture F-12 containing 5% donor horse serum, 100 ng/mL cholera toxin, 10 µg/mL human insulin, 20 ng/mL epidermal growth factor, 0.5 µg/mL hydrocortisone, and penicillin-streptomycin (sodium penicillin G: 100 units/mL; streptomycin: 100 μg/mL). The TNBC cells were cultured in medium [Dulbecco’s Modified Eagle’s Medium for MDA-MB-468, MDA-MB-231, and Hs578T cells; Roswell Park Memorial Institute 1640 medium for HCC38 cells] supplemented with penicillin-streptomycin and 10% fetal bovine serum at 37 °C in a humidified incubator with 5% carbon dioxide. MCF10A cells were cultured in DMEM/F12 containing 5% donor horse serum, 100 ng/mL cholera toxin, 10 µg/mL human insulin, 20 ng/mL epidermal growth factor, 0.5 µg/mL hydrocortisone and penicillin-streptomycin. All reagents used for cell culture, including culture medium, fetal bovine serum, trypsin-EDTA solution (1×), and penicillin-streptomycin solution (100×), were purchased from Gibco (Grand Island, NE, USA). Laemmli sample buffer (2×) and 2-mercaptoethanol were purchased from Bio-Rad Laboratories, Inc. (Hercules, CA, USA). EPZ-5676 was purchased from Cayman Chemical (Ann Arbor, MI, USA). Dimethyl sulfoxide (DMSO), bicinchoninic acid, copper (II) sulfate solution, bovine serum albumin (BSA), trichloroacetic acid, sulforhodamine B (SRB), and paclitaxel were purchased from Sigma–Aldrich (St. Louis, MO, USA).
(§2) Cell proliferation was evaluated using the SRB assay. Briefly, cells were seeded in 96-well plates and incubated for 30 min (for 0-day controls) or treated with test compounds for the times indicated. After incubation, the cells were fixed, dried, and stained with 0.4% (w/v) SRB in 1% (v/v) acetic acid solution. Unbound dye was removed by washing, and stained cells were dissolved in 10 mM Tris (pH 10.0). Cell proliferation was then determined by measuring the absorbance at 515 nm.

[1] = test system: MCF10A normal breast epithelial cells; assay: SRB cell proliferation assay, MCF10A; conditions: Homo sapiens, MCF-10A, 72 h
Method: as §1, §2

MDA-MB-231 cells = assay: Wound healing assay (cell migration); conditions: 24 h
Method: MDA-MB-231 human TNBC cells were grown to 90% confluence in a 6-well plate. Subsequently, each cell monolayer was artificially wounded using a Scratcher (SPL Life Sciences, Pocheon, Republic of Korea), and the detached cells were removed by washing with phosphate-buffered saline (PBS, Invitrogen Corp., Carlsbad, CA, USA). The wounded cultures were then incubated with medium containing 1% FBS and various concentrations of 9l and PsA for 24 h. The wounds were photographed at 0 and 24 h under an inverted microscope (Olympus, Tokyo, Japan). The wound areas were quantified using ImageJ software (National Institutes of Health, Bethesda, MD, USA) and presented as the percent wound healing (%) relative to the wound area at 0 h.

Q: Which results are given for CC(C)(C)c1ccc(C/C(=N\O)C(=O)NCC[Se]Sc2ccccc2)cc1 [9l, (E)-3-(4-(tert-Butyl)phenyl)-2-(hydroxyimino)-N-(2-((phenylthio)selanyl)ethyl)propanamide]?
A: IC50 (MDA-MB-231 TNBC cells; Homo sapiens, MDA-MB-231, 72 h, SRB assay): 0.16 µM; Therapeutic Index (MDA-MB-231 TNBC cells; ratio of IC50 values between MCF10A and MDA-MB-231 cells): 161.63; IC50 [1]: 25.9 µM; wound closure (cell migration) (MDA-MB-231 cells): significantly inhibited
